Results on one sequence are retold here after patent publication US20020055174A1, “Complex for transferring an anionic substance of interest into a cell” (priority 2000, published 2002).

Series [1] deals with HeLa cells. Description: Transfection in the presence of Bafilomycin A. The format is cell-based. The settings on record: 175 nM Bafilomycin A, 150 ng pTG11236. On the procedure: Transfection in the presence of Bafilomycin A: 6×10^4 HeLa cells were plated on 24 well plates. Cells were treated with 175 nM Bafilomycin A 30 min before and throughout the transfection (1 h incubation of cells with transfection mix in the absence of serum).
Bafilomycin A is a specific inhibitor of the vacuolar proton pump. Treatment with Bafilomycin inhibits the acidification of late endosomes. HeLa cells were treated with Bafilomycin A (175 nM) 30 min before and throughout the transfection (1 h incubation with transfection complexes in the absence of serum). 6×10^4 cells were transfected with 150 ng pTG11236 using PEI or ppTG1. The luciferase assay was performed 1 day after transfection.

Series [2] can be described thus: Liposome leakage assay, POPC liposomes containing calcein. The settings on record: pH5 and pH7, 20 μg as starting point. On the procedure:
Leakage activity was plotted against peptide concentration.
The peptide ppTG1 was tested for its capacity to cause membrane disruption in a liposome leakage assay with POPC liposomes containing the fluorescent product calcein. […] Release of calcein by Triton X-100 treatment was taken as positive control reaction, incubation with water served as negative control. The membranolytic activity of peptide ppTG1 (20 μg as starting point) was compared with those of equal quantities (20 μg) of JTS-1, JTS-1-K13 and KALA.

The subject of series [3] is HeLa cells. Description: Transfection in vitro, luciferase plasmid pTG11236. It is filed as cell-based. As for the experimental part: Cells were plated on 24 well plates at a density of 4×10^4 (293-EBNA ) or 7×10^4 (HeLa, Renca) cells/well in DMEM supplemented with 10% FCS. The next day, the medium was replaced by 200 μl serum-free DMEM and plasmid (pTG11056 or pTG11236)/peptide complexes or plasmid/peptide/lipid complexes were prepared in 30 μl 0.9% NaCl or 5% glucose. After 20 min at room temperature these complexes were added to the cells which were then incubated for 2-3 h at 37° C. and 5% CO2 before 1 ml serum-containing DMEM was added. Approximately 20-hours later, cells were lysed by addition of 100 μl 1× Promega lysis buffer, 20 μl of the lysates were analysed for luciferase activity. Proteins were quantified with the bicinchonic acid (BCA) colorimetric method (Smith, Anal. Biochem. 150 (1985), 76-85).
In another experiment, 7×10^4 HeLa cells, seeded on 24-well plates the day before transfection, were transfected with 0.5 μg or 0.05 μg pTG11236, complexed with Lipofectin or ppTG1. The plasmid/peptide complexes were prepared in 30 μl of 5% glucose or 0.9% NaCl and added to the cells (200 μl serum-free medium) after 20 min at room temperature. Serum-containing medium was added after 3 h, the cells were harvested the next day.
A comparison of the effect on transfection efficiency of ppTG1 and JTS-1-K13 was carried out in HeLa cells. Complexes of 0.5 μg or 0.05 μg pTG11236 were formed with increasing amounts the respective peptide.
(§1) A comparison of ppTG1 and KALA was carried out in HeLa and CHO cells. 5×10^4 cells were seeded on 24 well plates. The next day, cells were transfected with 500 ng and 50 ng of pTG11236, complexed with ppTG1 or KALA in 30 μl 0.9% NaCl. The charge ratio +/− varied from 1, 2, 3, 4, 7 to 10. Cells were harvested 20 h after transfection and lysis was obtained in 100 μl Promega lysis buffer. Luciferase activity and total protein concentrations in 20 μl were determined.
HeLa cells were seeded at a density of 6×10^4 cells on 24 well plates. The next day, cells were incubated with 200 μl serum-free medium, 30 μl of plasmid (50 ng)/peptide/lipid mixtures were added and incubated for 3 h at 37° C. in 5% CO2. 1 ml of DMEM+10% FCS was then added. The next day, the medium was removed and cells were washed with 500 μl of PBS and subsequently treated with 100 μl of Promega lysis buffer. Plates were stored at −80° C. until luciferase activity was measured of 20 μl of the cell lysate. The protein assay was performed using the Pierce BCA kit.
JTS1 was dissolved to 1 mg/ml in 1 mM NaOH and mixed with DNA diluted in 5% glucose. ppTG1 was then added to this solution. The pcTG90/DOPE ppTG1 mixtures were prepared as described in Example 6. Transfection assays were performed on HeLa cells with 50 ng of plasmid as described in Example 6.
The series of ppTG1 derivatives listed in Material and Methods were tested for their gene transfer efficiencies in Hela cells. 6×10^4 cells were transfected with 50 ng pTG11236 complexed with increasing amounts of peptide. Luciferase activity was analyzed day 1 after transfection. The results are shown in FIG. 10B (ppTG20, ppTG21), FIG. 10C(ppTG25, ppTG26, ppTG27), FIG. 10D (ppTG28 to ppTG33), FIG. 10E (PEG-ppTG1 and PEG-ppTG20), FIG. 10F (ppTG22 to ppTG24) and FIG. 10G (ppTG20-D).

Series [4] in a line: Liposome leakage assay, POPC/cholesterol 3:2 liposomes. The settings on record: for liposome leakage activity, in words: POPC/chol 3:2 liposomes.
Method: Increasing amounts of the indicated peptides were incubated with POPC/Cholesterol (3:2 mol/mol) liposomes for 30 min at RT. Emitted fluorescence was plotted against peptide concentration. […] B) Liposome leakage activity with complexes of ppTG1 and the plasmid pTG11236 at pH7.
1-Palmitoyl-2-Oleoyl-phosphatidylcholine (POPC) liposomes were prepared by the repeated freeze-thaw method followed by extrusion (Olson et al., 1979, Biochim. Biophys. Acta 557, 19-23). Ten μ-moles of POPC in chloroform were placed in a glass tube and solvent was evaporated under reduced pressure using a Labconco Rapidvap vortex evaporator (Uniequip, Germany). The resulting lipid film was hydrated with 0.5 ml of an aqueous solution of calcein (lOOmM calcein, 3.75 eq. NaOH, 50mM NaCl). The lipid suspension was sonicated until the solution became clear using a sonic water bath (Bransonic 221, Branson Ultrasonics Corp., USA). Five cycles of freeze-thaw were performed before liposomes were extruded by 4 passages through 200 nm pore diameter polycarbonate membranes (Nuclepore, Costar, Mass., USA). Free calcein was removed from calcein encapsulated into liposomes by gel exclusion chromatography using a Sephadex G-50 column (3 cm×14 cm) and a 200 mM NaCl, 25 mM HEPES, pH 7.3 solution as the elution buffer. The final lipid concentration was determined by a phosphorus assay (Bartlett, 1959, J. Biol. Chem. 234, 466-469). Liposomes' diameter was determined by dynamic laser light scattering using a Coulter N4 Plus submicron particle sizer (Coultronics France S. A, France). Measurements were performed within a 3 nm-10000 nm size window with a fixed 90° scattered light angle.
The liposome leakage assay was carried out as described in Planck et al. (1994, J. Biol. Chem. 269, 12918-12924). The liposome stock solution was diluted to a lipid concentration of 45 μM in 1.8× assay buffer (360 mM NaCl, 36 mM sodium citrate, pH 5 and pH 7). A 1:5 serial dilution of the tested peptide was carried out in a 96-well microtiter plate by transferring 20 μl of the peptide solution from one well to the next well and diluting with 80 μl H2O. 100 μl of the liposome solution was added in each well (final lipid concentration: 25 μM) and, after 30 min at room temperature, was assayed for fluorescence at 535 nm (excitation: 485 nm) on a microtiter plate fluorescence spectrometer (WALLAC, 1420 multilabel counter Victor). These conditions are appropriate to analyze fluorescein and as close as possible to the appropriate excitation/ emission profile of calcein (495 nm /515 nm). The value for 100% leakage was obtained by addition of 1 μl of a 10% Triton X-100 solution. Leakage activity was plotted against peptide concentration.
Liposome leakage activities were analyzed on liposomes consisting of POPC and cholesterol at a molar ratio of 3:2 (mol/mol).
Complexes of ppTG1 with plasmid DNA pTG11236 were tested for liposome leakage activity on POPC/chol 3:2 liposomes.
The series of ppTG1 derivatives as they are listed in Materials and Methods was tested for liposome leakage activity on POPC/chol 3:2 liposomes at pH7.
The subject of another series is CHO cells. Description: Transfection in vitro, luciferase plasmid pTG11236. The format is cell-based. On the procedure:
as §1

Entries after “also recorded” stand apart in the source; their conditions may differ. Ends that are not written are not given here.

Turning to GLFKALLKLLKSLWKLLLKA, the “effect of Bafilomycin A on transfection efficiency” value in the series with HeLa cells [1] was “not diminished; also recorded: did not influence the transfection efficiency”. Besides, the “membrane disruption (calcein release)” value in series [2] is listed as “capable of causing membrane disruption”. The luciferase activities result was “higher luciferase activities than observed for Lipofectin formulations” in the series with HeLa cells [3] (0.05 μg pTG11236, complexes in 0.9% NaCl) and “comparable luciferase activities as observed for DNA formulated with Lipofectin” with HeLa cells [3] (0.5 μg or 0.05 μg pTG11236 with 1.17 μg or 0.117 μg ppTG1, charge ratio 1.8). Also, the entries for the “more efficient than the complex comprising KALA, best case” value in the series with HeLa cells [3] (HeLa) and in the series on CHO cells were 3000 fold and 2500 fold, respectively. The “liposome leakage activity, in words” value in series [4] (pH5) and in series [4] (pH7) was “could efficiently liberate calcein” in each case. For the same sequence, the “liposome leakage of peptide/plasmid complexes” value is reported as “comparable to free ppTG1” in series [4] (complexed with pTG11236, P/N 5 or 10, pH7) and “slightly reduced” in series [4] (complexed with pTG11236, P/N of 1 or 0.8, pH7). The “destabilization of POPC/Chol liposomes” value in series [4] (peptide alone or complexed with plasmid DNA, summary) is “destabilizes efficiently”. The “more efficient in gene transfer than KALA” value in the series with CHO cells (50 ng pTG11236, optimum charge ratios) came to 68 fold; in the series with CHO cells (500 ng pTG11236, optimum charge ratios) it was 9 fold.
